Patent US20230139171A1 (SITA Information Networking Computing UK Limited, priority 2019, published 2023)
pIC50: −log10 of the molar value.

How the values were obtained:
Format in all cases: cell-based
[1] = target: T1, human TLR7 (Homo sapiens, UniProt Q9NYK1); test: TLR7 inhibition reporter assay (HEK-Blue cells, SEAP reporter, gardiquimod stimulation); conditions: HEK-Blue cells overexpressing human TLR7, SEAP reporter, gardiquimod 7.5 μM; read-out: TLR7 IC50
T1 construct: host or cells: HEK-Blue cells
T1 sequence (Q9NYK1 27-1049): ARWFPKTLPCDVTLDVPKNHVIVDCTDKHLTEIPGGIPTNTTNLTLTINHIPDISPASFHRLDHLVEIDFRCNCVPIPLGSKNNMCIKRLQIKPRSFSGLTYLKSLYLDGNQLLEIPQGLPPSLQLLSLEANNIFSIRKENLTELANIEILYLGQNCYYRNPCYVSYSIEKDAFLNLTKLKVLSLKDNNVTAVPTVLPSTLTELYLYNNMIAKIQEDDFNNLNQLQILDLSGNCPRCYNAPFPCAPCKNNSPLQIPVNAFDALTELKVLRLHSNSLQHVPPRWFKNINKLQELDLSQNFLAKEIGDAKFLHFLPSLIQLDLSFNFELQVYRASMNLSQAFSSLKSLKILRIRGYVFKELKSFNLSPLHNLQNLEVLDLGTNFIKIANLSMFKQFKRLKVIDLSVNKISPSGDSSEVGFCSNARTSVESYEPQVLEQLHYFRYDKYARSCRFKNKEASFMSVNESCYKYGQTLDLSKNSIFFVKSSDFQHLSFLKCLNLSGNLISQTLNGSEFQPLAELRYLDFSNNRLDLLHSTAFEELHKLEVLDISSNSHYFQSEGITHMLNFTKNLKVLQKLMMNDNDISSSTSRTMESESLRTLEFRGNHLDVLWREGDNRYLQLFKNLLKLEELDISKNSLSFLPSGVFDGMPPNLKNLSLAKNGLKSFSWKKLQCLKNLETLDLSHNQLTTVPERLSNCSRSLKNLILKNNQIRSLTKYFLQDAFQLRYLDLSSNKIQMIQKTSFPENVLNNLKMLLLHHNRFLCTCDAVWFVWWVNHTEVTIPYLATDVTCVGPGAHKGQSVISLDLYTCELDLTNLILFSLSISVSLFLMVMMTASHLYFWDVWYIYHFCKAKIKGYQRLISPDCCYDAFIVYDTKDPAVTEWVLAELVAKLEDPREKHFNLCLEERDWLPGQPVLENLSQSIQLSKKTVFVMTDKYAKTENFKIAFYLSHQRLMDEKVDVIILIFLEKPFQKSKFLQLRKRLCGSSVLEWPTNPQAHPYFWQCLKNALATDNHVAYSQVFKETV
Method in brief: (§1)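 HEK-Blue cells overexpressing human TLR7, TLR8 or TLR9 carry a SEAP reporter driven by NF-κB/AP-1 sites. Compounds (0.05 nM–50 μM) were preincubated 30 min at room temperature, then cells were stimulated with gardiquimod 7.5 μM (TLR7), R848 15.9 μM (TLR8) or ODN2006 5 nM (TLR9) for 22 h at 37 °C.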

[2] = target: T2, human TLR8 (Homo sapiens, UniProt Q9NR97); test: TLR8 inhibition reporter assay (HEK-Blue cells, SEAP reporter, R848 stimulation); conditions: HEK-Blue cells overexpressing human TLR8, SEAP reporter, R848 15.9 μM; read-out: TLR8 IC50
T2 construct: host or cells: HEK-Blue cells
T2 sequence (Q9NR97 27-1041): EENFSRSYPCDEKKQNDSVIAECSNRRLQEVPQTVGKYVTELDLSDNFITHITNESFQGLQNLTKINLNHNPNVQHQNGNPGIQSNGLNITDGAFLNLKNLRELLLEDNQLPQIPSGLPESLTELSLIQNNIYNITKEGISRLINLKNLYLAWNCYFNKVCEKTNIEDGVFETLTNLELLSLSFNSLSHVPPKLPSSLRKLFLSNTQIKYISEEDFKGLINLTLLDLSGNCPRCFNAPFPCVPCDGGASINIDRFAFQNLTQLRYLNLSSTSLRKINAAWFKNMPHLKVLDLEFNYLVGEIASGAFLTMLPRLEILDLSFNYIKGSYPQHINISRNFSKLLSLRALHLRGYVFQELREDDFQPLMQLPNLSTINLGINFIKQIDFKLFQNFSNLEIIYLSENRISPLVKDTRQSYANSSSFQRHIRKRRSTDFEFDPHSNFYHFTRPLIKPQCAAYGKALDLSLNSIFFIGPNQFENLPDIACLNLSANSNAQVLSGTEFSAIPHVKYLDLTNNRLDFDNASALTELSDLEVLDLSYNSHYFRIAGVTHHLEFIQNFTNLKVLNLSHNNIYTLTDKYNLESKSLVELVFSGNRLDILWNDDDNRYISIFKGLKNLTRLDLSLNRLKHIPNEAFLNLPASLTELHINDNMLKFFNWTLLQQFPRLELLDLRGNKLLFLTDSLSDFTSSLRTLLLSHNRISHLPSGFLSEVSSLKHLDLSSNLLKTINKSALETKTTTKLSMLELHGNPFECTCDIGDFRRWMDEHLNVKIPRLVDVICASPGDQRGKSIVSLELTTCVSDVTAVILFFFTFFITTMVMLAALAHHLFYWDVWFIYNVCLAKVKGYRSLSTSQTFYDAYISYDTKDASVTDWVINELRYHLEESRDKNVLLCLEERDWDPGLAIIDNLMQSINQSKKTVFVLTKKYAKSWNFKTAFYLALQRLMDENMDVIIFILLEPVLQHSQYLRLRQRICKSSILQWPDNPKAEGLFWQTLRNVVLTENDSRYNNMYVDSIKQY
Method in brief: as §1

[3] = target: T3, human TLR9 (Homo sapiens, UniProt Q9NR96); test: TLR9 inhibition reporter assay (HEK-Blue cells, SEAP reporter, ODN2006 stimulation); conditions: HEK-Blue cells overexpressing human TLR9, SEAP reporter, ODN2006 5 nM
T3 construct: host or cells: HEK-Blue cells
T3 sequence (Q9NR96 26-1032): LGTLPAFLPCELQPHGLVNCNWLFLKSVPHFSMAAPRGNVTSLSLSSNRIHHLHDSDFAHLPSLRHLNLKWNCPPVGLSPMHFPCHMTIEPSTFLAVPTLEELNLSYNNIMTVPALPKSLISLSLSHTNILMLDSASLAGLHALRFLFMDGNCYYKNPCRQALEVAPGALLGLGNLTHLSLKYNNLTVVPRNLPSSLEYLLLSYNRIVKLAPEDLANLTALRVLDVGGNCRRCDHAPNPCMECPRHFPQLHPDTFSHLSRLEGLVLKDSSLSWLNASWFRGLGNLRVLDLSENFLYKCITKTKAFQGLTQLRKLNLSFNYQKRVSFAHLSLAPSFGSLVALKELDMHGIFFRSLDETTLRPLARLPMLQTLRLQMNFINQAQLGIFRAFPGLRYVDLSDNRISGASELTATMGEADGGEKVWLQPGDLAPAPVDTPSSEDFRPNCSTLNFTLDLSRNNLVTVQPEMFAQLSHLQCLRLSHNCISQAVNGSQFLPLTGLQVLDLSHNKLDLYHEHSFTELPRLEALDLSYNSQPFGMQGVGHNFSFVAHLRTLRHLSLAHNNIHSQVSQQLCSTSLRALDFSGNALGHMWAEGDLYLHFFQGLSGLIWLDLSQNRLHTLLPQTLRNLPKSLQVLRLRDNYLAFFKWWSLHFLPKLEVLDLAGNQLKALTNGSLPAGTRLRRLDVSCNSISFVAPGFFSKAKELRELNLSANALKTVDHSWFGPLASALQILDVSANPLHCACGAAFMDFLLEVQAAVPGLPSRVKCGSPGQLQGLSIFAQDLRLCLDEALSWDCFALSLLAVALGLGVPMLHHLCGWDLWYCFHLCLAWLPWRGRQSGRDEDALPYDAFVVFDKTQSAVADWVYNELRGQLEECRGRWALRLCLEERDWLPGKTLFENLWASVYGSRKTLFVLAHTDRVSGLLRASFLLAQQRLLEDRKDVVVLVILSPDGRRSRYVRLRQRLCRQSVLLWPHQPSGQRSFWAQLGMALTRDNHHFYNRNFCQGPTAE
Method in brief: as §1

| SMILES | pIC50 [1] | pIC50 [2] | pIC50 [3] |
| --- | --- | --- | --- |
| Cc1c(-c2[nH]c3sc(C4CCC(NC(C)C)CC4)nc3c2C(C)C)cn2ncnc2c1C (single isomer, unassigned) [Example 195, 4-(5-(7,8-dimethyl-[1,2,4]triazolo[1,5-a]pyridin-6-yl)-6-isopropyl-4H-pyrrolo[3,2-d]thiazol-2-yl)-N-isopropylcyclohexan-1-amine] | 8.65 | 8.78 | 5.26 |
| Cc1c(-c2[nH]c3sc(C4CCC(NCC(C)(C)O)CC4)nc3c2C(C)C)cn2ncnc2c1C (single isomer, unassigned) [Example 196, 1-((4-(5-(7,8-dimethyl-[1,2,4]triazolo[1,5-a]pyridin-6-yl)-6-isopropyl-4H-pyrrolo[3,2-d]thiazol-2-yl)cyclohexyl)amino)-2-methylpropan-2-ol] | 8.95 | 9.77 | 4.89 |
| Cc1c(-c2[nH]c3sc(C4CCC(NCC(C)(C)O)CC4)nc3c2C(C)C)cn2ncnc2c1C (single isomer, unassigned) [Example 197, 1-((4-(5-(7,8-dimethyl-[1,2,4]triazolo[1,5-a]pyridin-6-yl)-6-isopropyl-4H-pyrrolo[3,2-d]thiazol-2-yl)cyclohexyl)amino)-2-methylpropan-2-ol] | 8.27 | 8.68 | 4.88 |
| Cc1c(-c2[nH]c3sc(C4CCC(NCC(C)(C)C)CC4)nc3c2C(C)C)cn2ncnc2c1C (single isomer, unassigned) [Example 199, 4-(5-(7,8-dimethyl-[1,2,4]triazolo[1,5-a]pyridin-6-yl)-6-isopropyl-4H-pyrrolo[3,2-d]thiazol-2-yl)-N-neopentylcyclohexan-1-amine] | 8.30 | 8.66 | 5.53 |
| Cc1c(-c2[nH]c3sc(C4CCC(NC5CCOCC5)CC4)nc3c2C(C)C)cn2ncnc2c1C (single isomer, unassigned) [Example 200, N-(4-(5-(7,8-dimethyl-[1,2,4]triazolo[1,5-a]pyridin-6-yl)-6-isopropyl-4H-pyrrolo[3,2-d]thiazol-2-yl)cyclohexyl)tetrahydro-2H-pyran-4-amine] | 9.04 | 9.41 | 4.99 |
| Cc1c(-c2[nH]c3sc(C4CCC(NC5CCOCC5)CC4)nc3c2C(C)C)cn2ncnc2c1C (single isomer, unassigned) [Example 201, N-(4-(5-(7,8-dimethyl-[1,2,4]triazolo[1,5-a]pyridin-6-yl)-6-isopropyl-4H-pyrrolo[3,2-d]thiazol-2-yl)cyclohexyl)tetrahydro-2H-pyran-4-amine] | 8.18 | 8.38 | 5.03 |
| Cc1c(-c2[nH]c3sc(C4CCC(NCC(=O)N(C)C)CC4)nc3c2C(C)C)cn2ncnc2c1C (single isomer, unassigned) [Example 204, 2-((4-(5-(7,8-dimethyl-[1,2,4]triazolo[1,5-a]pyridin-6-yl)-6-isopropyl-4H-pyrrolo[3,2-d]thiazol-2-yl)cyclohexyl)amino)-N,N-dimethylacetamide] | 8.82 | 9.20 | 4.75 |
| Cc1c(-c2[nH]c3sc(C4CCC(NCC(=O)N(C)C)CC4)nc3c2C(C)C)cn2ncnc2c1C (single isomer, unassigned) [Example 205, 2-((4-(5-(7,8-dimethyl-[1,2,4]triazolo[1,5-a]pyridin-6-yl)-6-isopropyl-4H-pyrrolo[3,2-d]thiazol-2-yl)cyclohexyl)amino)-N,N-dimethylacetamide] | 8.18 | 8.63 | 4.67 |
| CNC(=O)CNC1CCC(c2nc3c(C(C)C)c(-c4cn5ncnc5c(C)c4C)[nH]c3s2)CC1 (single isomer, unassigned) [Example 208, 2-((4-(5-(7,8-dimethyl-[1,2,4]triazolo[1,5-a]pyridin-6-yl)-6-isopropyl-4H-pyrrolo[3,2-d]thiazol-2-yl)cyclohexyl)amino)-N-methylacetamide] | 9.00 | 9.28 | 4.70 |
| CNC(=O)CNC1CCC(c2nc3c(C(C)C)c(-c4cn5ncnc5c(C)c4C)[nH]c3s2)CC1 (single isomer, unassigned) [Example 209, 2-((4-(5-(7,8-dimethyl-[1,2,4]triazolo[1,5-a]pyridin-6-yl)-6-isopropyl-4H-pyrrolo[3,2-d]thiazol-2-yl)cyclohexyl)amino)-N-methylacetamide] | 9.49 | 9.85 | 5.38 |
| Cc1c(-c2[nH]c3sc(C4CCC(N5CCOCC5)CC4)nc3c2C(C)C)cn2ncnc2c1C (single isomer, unassigned) [Example 212, 4-(4-(5-(7,8-dimethyl-[1,2,4]triazolo[1,5-a]pyridin-6-yl)-6-isopropyl-4H-pyrrolo[3,2-d]thiazol-2-yl)cyclohexyl) morpholine] | 9.21 | 9.20 | 5.13 |
